Patent US12414960B2, “Analogues of oleuropein and oleacein and uses thereof” (Attica Sciences Ltd., priority 2020, dated 2025)

Experiments:
[1] = system: MDA-MB-231 triple negative breast cancer cells; assay: XTT cell growth assay, MDA-MB-231; format: cell-based, human; settings: NS = not statistically significant; for inhibition at 50 µM: Homo sapiens, MDA-MB-231, 24 h, read-out: Effectiveness to suppress MDA-MB-231 cell growth (cell growth inhibition)
Procedure, shortened: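 Cells grown 24 h in DMEM, then exposed 24 h to 5, 10 and 50 μM compound in serum-free DMEM. Viability read by XTT reduction to formazan after 4 h, absorbance at 450 nm with 630 nm reference; serum-free DMEM alone as negative control.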

[2] = Deoxyribose degradation assay (hydroxyl radical scavenging); format: biochemical; settings: NS = not statistically significant
Procedure, shortened: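 Hydroxyl radicals from Fenton's reaction degrade 2-deoxyribose. Scavenging is measured as inhibition of this oxidation, read spectrophotometrically as pink chromogen absorbance at 532 nm.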

[3] = Ferric reducing antioxidant power (FRAP) assay; format: biochemical; settings: NS = not statistically significant
Description: Reducing power is associated with antioxidant activity and may serve as a significant reflection of the antioxidant activity. Compounds with reducing power indicate that they are electron donors and can reduce the oxidized intermediates of lipid peroxidation processes, so that they can act as primary and secondary antioxidants.
In this assay, the yellow color of the test solution changes to various shades of green and blue depending on the reducing power of each compound. Presence of reducers causes the conversion of the Fe3+/ferricyanide complex used in this method to the ferrous form which when it reacts with iron chloride it gives a complex which absorbs at 700 nm. The higher the absorption at 700 nm, the greater the reducing capacity (FIG. 6).
The ferric reducing antioxidant capacity of the GS compounds was investigated by using the potassium ferricyanide-ferric chloride method (Tundis, Rosa et al. LWT—Food Science and Technology, 2013, 53: 370-377). Briefly, 0.2 mL of each of the GS compounds, 2.5 mL of phosphate buffer (0.2 M, pH 6.6), and 2.5 mL of potassium ferricyanide K3Fe(CN)6 (1%) were mixed and incubated at 50° C. for 20 min, to reduce ferricyanide into ferrocyanide. The reaction was stopped by adding 2.5 mL of 10% (w/v) trichloroacetic acid followed by centrifugation at 1000 rpm for 10 min. Finally, 2.5 mL of the upper layer was mixed with 2.5 mL of distilled water and 0.5 mL of FeCl3 (0.1%) and the absorbance was measured at 700 nm.

[4] = system: MCF-7 ER+ breast cancer cells; assay: XTT cell growth assay, MCF-7 ER+; format: cell-based, human; settings: NS = not statistically significant; for inhibition at 50 µM: Homo sapiens, MCF7, 24 h, read-out: Effectiveness to suppress MCF7 cell growth (cell growth inhibition)
Procedure, shortened: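 MCF-7 ER+ cells grown 24 h in DMEM, then given 5, 10 or 50 μM compound in serum-free DMEM for 24 h. XTT reagent added for 4 h. Absorbance read at 450 nm with 630 nm reference; serum-free DMEM alone as negative control.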

Row | Deoxyribose Degradation Assay IC50 [2] [μg extract/mL] | SMILES | inhibition at 50 µM [1] [%] | Ferric Reducing Power Antioxidant Assay RP0.5AU [3] [μg extract/mL] | inhibition at 50 µM [4] [%] | Effectiveness to suppress MDA-MB-231 cell growth (cell growth inhibition) ([1]; 50 uM, 24 h) | Effectiveness to suppress MCF7 cell growth (cell growth inhibition) ([4]; 50 uM, 24 h)
1 | 41.9 | C/C=C1/[C@H](OC2OC(CO)C(O)C(O)C2O)OC=C(C(=O)O)[C@H]1CC(=O)OCCc1ccc(O)c(O)c1 (stereo in doubt) [GS6, (2S,4S,E)-4-(2-(3,4-dihydroxyphenethoxy)-2-oxoethyl)-3-ethylidene-2{[(2R,3S,4R,5R,6S)-3,4,5-trihydroxy-6-(hydroxymethyl)tetrahydro-2H-pyran-2-yl]oxy}-3,4dihydro-2H-pyran-5-carboxylic acid] | 45.3 | 36 | 24.8 | – | –
2 | 80.8 | C/C=C1/[C@H](O[C@@H]2O[C@H](CO)[C@@H](O)[C@H](O)[C@H]2O)OC=C(C(=O)OC)[C@H]1CC(=O)OCCc1ccc(O)c(O)c1 [GS1, oleuropein] | 48.3 | 35 | – | – | –
3 | 21.7 | C/C=C(/C=O)[C@@H](CC=O)CC(=O)OCCc1ccc(O)c(O)c1 [GS17, (3S,4E)-4-formyl-3-(2-oxoethyl)-4-hexenoic acid 2-(3,4-dihydroxyphenyl)ethyl ester, reference compound] | 47.6 | 4.48 | 35.2 | – | –
4 | 31.9 | C/C=C(/C=O)[C@@H](CC=O)CC(=O)OCCc1ccc(O)cc1 [GS19, (3S,4E)-4-formyl-3-(2-oxoethyl)-4-hexenoic acid 2-(4-hydroxyphenyl)ethyl ester, reference compound] | 55 | 133 | – | – | –
5 | 16.1 | C/C=C(/C=O)[C@@H](CC=O)CC(=O)OCCOc1ccccc1 [GS24, (3S,4E)-4-formyl-3-(2-oxoethyl)-4-hexenoic acid 2-phenoxyethyl ester] | 80.5 | – | 60.5 | highest suppressive activity | –
6 | 21.3 | C/C=C(/C=O)[C@@H](CC=O)CC(=O)OCCCCCCCCCCCCCCCC [GS26, (3S,4E)-4-formyl-3-(2-oxoethyl)-4-hexenoic acid hexadecyl ester] | 47.6 | – | 61 | – | –
7 | 12.3 | C/C=C(/C=O)[C@@H](CC=O)CC(=O)OCCCSC [GS28, (3S,4E)-4-formyl-3-(2-oxoethyl)-4-hexenoic acid 3-(methylthio)propyl ester] | 47.8 | – | 48.7 | – | –

Row | SMILES | Deoxyribose Degradation Assay IC50 [2] [μg extract/mL] | inhibition at 50 µM [1] [%] | Ferric Reducing Power Antioxidant Assay RP0.5AU [3] [μg extract/mL] | inhibition at 50 µM [4] [%] | Effectiveness to suppress MDA-MB-231 cell growth (cell growth inhibition) ([1]; 50 uM, 24 h) | Effectiveness to suppress MCF7 cell growth (cell growth inhibition) ([4]; 50 uM, 24 h)
8 | C/C=C(/C=O)[C@@H](CC=O)CC(=O)SCCc1ccccc1 [GS27, S-phenethyl (3S,4E)-4-formyl-3-(2-oxoethyl)hex-4-enethioate] | 16.4 | 61.4 | – | 83.2 | – | best efficacy
